Tests used:
Assay type in all cases: cell-based
Conditions in all cases: 24 hours of compound treatment, 50 nM and 500 nM
[1] = biological target: T1, WEE1 (Homo sapiens, UniProt P30291+Q96SW2); test: Western-blot assay, substrate protein degradation in hPBMCs: WEE1
T1 construct: effects of the compounds of the present disclosure on the expression of target proteins in cells; endogenous in cells; host or cells: human PBMCs (hPBMCs)

[2] = biological target: T2, CK1α (Homo sapiens, UniProt P48729+Q96SW2); test: Western-blot assay, substrate protein degradation in hPBMCs: CK1α
T2 construct: effects of the compounds of the present disclosure on the expression of target proteins in cells; endogenous in cells; host or cells: human PBMCs (hPBMCs)

[3] = biological target: T3, GSPT1 (Homo sapiens, UniProt P15170+Q96SW2); test: Western-blot assay, substrate protein degradation in hPBMCs: GSPT1
T3 construct: effects of the compounds of the present disclosure on the expression of target proteins in cells; endogenous in cells; host or cells: human PBMCs (hPBMCs)

[4] = biological target: T4, IKZF2 (Homo sapiens, UniProt Q96SW2+Q9UKS7); test: Western-blot assay, substrate protein degradation in hPBMCs: IKZF2
T4 construct: effects of the compounds of the present disclosure on the expression of target proteins in cells; endogenous in cells; host or cells: human PBMCs (hPBMCs)

[5] = biological target: T5, IKZF1 (Homo sapiens, UniProt Q13422+Q96SW2); test: Western-blot assay, substrate protein degradation in hPBMCs: IKZF1
T5 construct: effects of the compounds of the present disclosure on the expression of target proteins in cells; endogenous in cells; host or cells: human PBMCs (hPBMCs)

[6] = biological target: T6, IKZF3 (Homo sapiens, UniProt Q96SW2+Q9UKT9); test: Western-blot assay, substrate protein degradation in hPBMCs: IKZF3
T6 construct: effects of the compounds of the present disclosure on the expression of target proteins in cells; endogenous in cells; host or cells: human PBMCs (hPBMCs)
T6 sequence (Q9UKT9 whole entry): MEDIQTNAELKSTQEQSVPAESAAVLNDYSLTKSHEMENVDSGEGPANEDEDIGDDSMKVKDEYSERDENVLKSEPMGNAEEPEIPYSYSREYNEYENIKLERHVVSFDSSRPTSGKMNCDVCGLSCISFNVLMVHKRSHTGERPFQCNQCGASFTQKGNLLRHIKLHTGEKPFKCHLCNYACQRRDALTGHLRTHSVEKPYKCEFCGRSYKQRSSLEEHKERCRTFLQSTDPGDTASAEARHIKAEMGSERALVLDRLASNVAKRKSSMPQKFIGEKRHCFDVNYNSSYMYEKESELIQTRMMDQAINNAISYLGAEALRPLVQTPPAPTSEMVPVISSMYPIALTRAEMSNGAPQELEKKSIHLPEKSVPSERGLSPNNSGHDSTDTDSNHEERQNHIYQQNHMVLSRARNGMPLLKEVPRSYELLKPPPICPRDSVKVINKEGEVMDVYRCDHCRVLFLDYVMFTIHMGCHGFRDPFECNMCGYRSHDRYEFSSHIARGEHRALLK
T6 sequence (Q96SW2 whole entry): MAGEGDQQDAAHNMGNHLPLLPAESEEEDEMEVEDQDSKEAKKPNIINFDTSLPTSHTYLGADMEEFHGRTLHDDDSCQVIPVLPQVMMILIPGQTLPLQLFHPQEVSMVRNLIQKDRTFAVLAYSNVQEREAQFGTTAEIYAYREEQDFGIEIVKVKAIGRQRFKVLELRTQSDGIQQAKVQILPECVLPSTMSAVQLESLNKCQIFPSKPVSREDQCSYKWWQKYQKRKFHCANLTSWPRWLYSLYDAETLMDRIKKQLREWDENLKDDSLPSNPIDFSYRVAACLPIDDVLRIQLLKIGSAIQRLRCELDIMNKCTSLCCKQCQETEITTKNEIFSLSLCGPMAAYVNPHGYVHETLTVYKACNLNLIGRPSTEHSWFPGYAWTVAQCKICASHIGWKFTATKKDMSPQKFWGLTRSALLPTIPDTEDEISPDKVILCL
T6 sequence (Q16531 whole entry partner): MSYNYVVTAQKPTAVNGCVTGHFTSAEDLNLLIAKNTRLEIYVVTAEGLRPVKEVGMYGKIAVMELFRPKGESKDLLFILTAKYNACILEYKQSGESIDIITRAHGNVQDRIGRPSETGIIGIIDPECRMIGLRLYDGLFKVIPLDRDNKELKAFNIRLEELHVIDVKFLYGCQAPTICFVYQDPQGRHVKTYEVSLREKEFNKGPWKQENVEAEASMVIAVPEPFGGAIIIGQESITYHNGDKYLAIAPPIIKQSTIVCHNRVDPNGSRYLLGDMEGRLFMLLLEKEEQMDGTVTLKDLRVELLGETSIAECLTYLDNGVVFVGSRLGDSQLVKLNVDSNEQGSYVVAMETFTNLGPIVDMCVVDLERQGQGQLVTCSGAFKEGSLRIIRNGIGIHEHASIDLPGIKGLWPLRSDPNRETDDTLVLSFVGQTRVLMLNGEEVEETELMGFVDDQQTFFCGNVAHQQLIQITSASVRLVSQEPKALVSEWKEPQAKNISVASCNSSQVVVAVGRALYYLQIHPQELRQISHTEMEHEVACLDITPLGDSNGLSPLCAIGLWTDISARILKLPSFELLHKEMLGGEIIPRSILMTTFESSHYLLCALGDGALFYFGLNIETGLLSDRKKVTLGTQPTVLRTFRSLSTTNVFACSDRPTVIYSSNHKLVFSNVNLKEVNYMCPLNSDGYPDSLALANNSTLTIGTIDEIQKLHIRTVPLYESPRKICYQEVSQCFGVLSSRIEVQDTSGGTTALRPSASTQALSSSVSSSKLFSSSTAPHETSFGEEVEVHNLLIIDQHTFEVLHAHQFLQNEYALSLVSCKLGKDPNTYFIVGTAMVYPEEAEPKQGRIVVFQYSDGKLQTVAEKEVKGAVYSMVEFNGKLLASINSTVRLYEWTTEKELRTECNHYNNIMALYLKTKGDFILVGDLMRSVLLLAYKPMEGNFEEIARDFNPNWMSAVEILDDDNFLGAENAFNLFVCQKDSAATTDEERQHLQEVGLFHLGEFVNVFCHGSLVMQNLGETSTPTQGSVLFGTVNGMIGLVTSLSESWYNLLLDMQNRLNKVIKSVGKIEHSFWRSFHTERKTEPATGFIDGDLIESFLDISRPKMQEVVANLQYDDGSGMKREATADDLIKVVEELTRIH

T2 sequence (P48729 whole entry): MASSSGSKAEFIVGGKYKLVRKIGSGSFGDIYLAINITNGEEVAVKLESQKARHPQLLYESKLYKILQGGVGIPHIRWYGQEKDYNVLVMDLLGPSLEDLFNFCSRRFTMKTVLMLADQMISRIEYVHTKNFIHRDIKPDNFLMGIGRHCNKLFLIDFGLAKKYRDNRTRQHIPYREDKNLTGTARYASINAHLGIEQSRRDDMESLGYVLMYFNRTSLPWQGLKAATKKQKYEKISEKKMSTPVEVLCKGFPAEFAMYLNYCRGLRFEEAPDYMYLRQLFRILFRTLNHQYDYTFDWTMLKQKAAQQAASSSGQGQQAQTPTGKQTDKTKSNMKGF
T2 sequence (Q96SW2 whole entry): as the sequence (Q96SW2 whole entry) above
T2 sequence (Q16531 whole entry partner): as the sequence (Q16531 whole entry partner) above
T5 sequence (Q13422 whole entry): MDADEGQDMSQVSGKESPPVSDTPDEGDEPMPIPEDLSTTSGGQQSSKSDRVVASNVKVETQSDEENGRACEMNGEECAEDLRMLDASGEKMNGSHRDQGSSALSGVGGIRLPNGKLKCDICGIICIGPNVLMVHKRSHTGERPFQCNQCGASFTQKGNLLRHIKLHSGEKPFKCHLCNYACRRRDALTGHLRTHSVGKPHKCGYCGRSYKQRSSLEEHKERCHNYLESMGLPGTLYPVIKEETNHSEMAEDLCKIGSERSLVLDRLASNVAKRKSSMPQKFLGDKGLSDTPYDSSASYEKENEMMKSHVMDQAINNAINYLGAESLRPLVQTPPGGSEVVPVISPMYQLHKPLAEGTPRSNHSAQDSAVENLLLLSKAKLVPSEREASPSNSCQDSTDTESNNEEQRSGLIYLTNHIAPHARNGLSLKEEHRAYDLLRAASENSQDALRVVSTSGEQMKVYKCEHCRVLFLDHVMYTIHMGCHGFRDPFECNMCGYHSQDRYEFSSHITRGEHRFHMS
T5 sequence (Q96SW2 whole entry): as the sequence (Q96SW2 whole entry) above
T5 sequence (Q16531 whole entry partner): as the sequence (Q16531 whole entry partner) above
T4 sequence (Q9UKS7 whole entry): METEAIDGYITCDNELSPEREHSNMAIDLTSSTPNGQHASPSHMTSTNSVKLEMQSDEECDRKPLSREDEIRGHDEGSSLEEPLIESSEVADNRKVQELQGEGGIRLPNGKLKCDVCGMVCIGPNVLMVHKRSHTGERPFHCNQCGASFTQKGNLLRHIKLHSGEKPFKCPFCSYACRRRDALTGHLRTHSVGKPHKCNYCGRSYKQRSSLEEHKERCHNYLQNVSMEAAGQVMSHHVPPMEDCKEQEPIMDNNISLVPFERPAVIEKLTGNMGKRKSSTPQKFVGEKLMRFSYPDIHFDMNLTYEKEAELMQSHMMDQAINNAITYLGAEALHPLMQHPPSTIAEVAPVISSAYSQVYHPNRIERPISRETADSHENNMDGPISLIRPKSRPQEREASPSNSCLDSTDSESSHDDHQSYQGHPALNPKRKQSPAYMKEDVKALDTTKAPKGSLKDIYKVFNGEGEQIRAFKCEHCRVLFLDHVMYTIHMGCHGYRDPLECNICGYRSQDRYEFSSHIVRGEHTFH
T4 sequence (Q96SW2 whole entry): as the sequence (Q96SW2 whole entry) above
T4 sequence (Q16531 whole entry partner): as the sequence (Q16531 whole entry partner) above
T3 sequence (P15170 whole entry): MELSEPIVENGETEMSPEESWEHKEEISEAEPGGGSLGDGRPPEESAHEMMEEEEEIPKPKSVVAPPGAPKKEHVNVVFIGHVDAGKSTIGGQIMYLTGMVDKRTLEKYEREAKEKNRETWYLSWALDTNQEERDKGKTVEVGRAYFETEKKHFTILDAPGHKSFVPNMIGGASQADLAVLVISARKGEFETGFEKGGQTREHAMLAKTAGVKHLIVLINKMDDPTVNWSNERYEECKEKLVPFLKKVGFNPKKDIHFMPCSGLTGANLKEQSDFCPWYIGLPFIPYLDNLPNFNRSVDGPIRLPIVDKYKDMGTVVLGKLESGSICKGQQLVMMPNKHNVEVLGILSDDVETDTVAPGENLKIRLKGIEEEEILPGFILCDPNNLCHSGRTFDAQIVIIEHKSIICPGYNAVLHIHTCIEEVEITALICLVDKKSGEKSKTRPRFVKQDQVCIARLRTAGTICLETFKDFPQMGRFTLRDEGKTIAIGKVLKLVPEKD
T3 sequence (Q96SW2 whole entry): as the sequence (Q96SW2 whole entry) above
T3 sequence (Q16531 whole entry partner): as the sequence (Q16531 whole entry partner) above

SMILES: Cc1cc(C2CCN(Cc3ccc4c(c3)CN(N3CCC(=O)NC3=O)C4=O)CC2)cs1 [GT-07373, 1-(5-((4-(5-methylthiophen-3-yl)piperidin-1-yl)methyl)-1-oxoisoindolin-2-yl)dihydropyrimidine-2,4(1H,3H)-dione]
- substrate protein remaining % WEE1 [1]: B (80%< substrate protein remaining %≤ 100%)
- substrate protein remaining % CK1α [2]: B (80%< substrate protein remaining %≤ 100%)
- substrate protein remaining % GSPT1 [3]: A (0% ≤ substrate protein remaining % ≤ 80%)
- substrate protein remaining % IKZF2 [4]: B (80%< substrate protein remaining %≤ 100%)
- substrate protein remaining % IKZF1 [5]: B (80%< substrate protein remaining %≤ 100%)
- substrate protein remaining % IKZF3 [6]: A (0% ≤ substrate protein remaining % ≤ 80%)

SMILES: O=C1CCN(N2Cc3cc(CN4CCC(c5ccco5)CC4)ccc3C2=O)C(=O)N1 [GT-07374, 1-(5-((4-(furan-2-yl)piperidin-1-yl)methyl)-1-oxoisoindolin-2-yl)dihydropyrimidine-2,4(1H,3H)-dione]
- substrate protein remaining % WEE1 [1]: B (80%< substrate protein remaining %≤ 100%)
- substrate protein remaining % CK1α [2]: A (0% ≤ substrate protein remaining % ≤ 80%)
- substrate protein remaining % GSPT1 [3]: A (0% ≤ substrate protein remaining % ≤ 80%)
- substrate protein remaining % IKZF2 [4]: B (80%< substrate protein remaining %≤ 100%)
- substrate protein remaining % IKZF1 [5]: B (80%< substrate protein remaining %≤ 100%)
- substrate protein remaining % IKZF3 [6]: B (80%< substrate protein remaining %≤ 100%)

SMILES: O=C1CCN(N2Cc3cc(CN4CCC(c5ccoc5)CC4)ccc3C2=O)C(=O)N1 [GT-07375, 1-(5-((4-(furan-3-yl)piperidin-1-yl)methyl)-1-oxoisoindolin-2-yl)dihydropyrimidine-2,4(1H,3H)-dione]
- substrate protein remaining % WEE1 [1]: B (80%< substrate protein remaining %≤ 100%)
- substrate protein remaining % CK1α [2]: A (0% ≤ substrate protein remaining % ≤ 80%)
- substrate protein remaining % GSPT1 [3]: A (0% ≤ substrate protein remaining % ≤ 80%)
- substrate protein remaining % IKZF2 [4]: B (80%< substrate protein remaining %≤ 100%)
- substrate protein remaining % IKZF1 [5]: B (80%< substrate protein remaining %≤ 100%)
- substrate protein remaining % IKZF3 [6]: B (80%< substrate protein remaining %≤ 100%)

SMILES: O=C1CCN(N2Cc3cc(CN4C5CC4CN(C(=O)C4=C(c6ccc(F)cc6)CCCC4)C5)ccc3C2=O)C(=O)N1 [GT-07376, 1-(5-((3-(4'-fluoro-3,4,5,6-tetrahydro-[1,1'-biphenyl]-2-carbonyl)-3,6-diazabicyclo[3.1.1]heptan-6-yl)methyl)-1-oxoisoindolin-2-yl)dihydropyrimidine-2,4(1H,3H)-dione]
- substrate protein remaining % WEE1 [1]: A (0% ≤ substrate protein remaining % ≤ 80%)
- substrate protein remaining % CK1α [2]: B (80%< substrate protein remaining %≤ 100%)
- substrate protein remaining % GSPT1 [3]: B (80%< substrate protein remaining %≤ 100%)
- substrate protein remaining % IKZF2 [4]: B (80%< substrate protein remaining %≤ 100%)
- substrate protein remaining % IKZF1 [5]: B (80%< substrate protein remaining %≤ 100%)
- substrate protein remaining % IKZF3 [6]: B (80%< substrate protein remaining %≤ 100%)

SMILES: O=C1CCN(N2C(=O)c3ccc(CN4C5CC4CN(C(=O)C4=C(c6ccc(F)cc6)CCCC4)C5)cc3C2=O)C(=O)N1 [GT-07377, 2-(2,4-dioxotetrahydropyrimidin-1(2H)-yl)-5-((3-(4'-fluoro-3,4,5,6-tetrahydro-[1,1'-biphenyl]-2-carbonyl)-3,6-diazabicyclo[3.1.1]heptan-6-yl)methyl)isoindoline-1,3-dione]
- substrate protein remaining % WEE1 [1]: A (0% ≤ substrate protein remaining % ≤ 80%)
- substrate protein remaining % CK1α [2]: A (0% ≤ substrate protein remaining % ≤ 80%)
- substrate protein remaining % GSPT1 [3]: A (0% ≤ substrate protein remaining % ≤ 80%)
- substrate protein remaining % IKZF2 [4]: A (0% ≤ substrate protein remaining % ≤ 80%)
- substrate protein remaining % IKZF1 [5]: B (80%< substrate protein remaining %≤ 100%)
- substrate protein remaining % IKZF3 [6]: B (80%< substrate protein remaining %≤ 100%)

SMILES: O=C1CCN(N2C(=O)c3ccc(CN4CCC(c5ccsc5)CC4)cc3C2=O)C(=O)N1 [GT-07420, 2-(2,4-dioxotetrahydropyrimidin-1(2H)-yl)-5-((4-(thiophen-3-yl)piperidin-1-yl)methyl)isoindoline-1,3-dione]
- substrate protein remaining % WEE1 [1]: B (80%< substrate protein remaining %≤ 100%)
- substrate protein remaining % CK1α [2]: A (0% ≤ substrate protein remaining % ≤ 80%)
- substrate protein remaining % GSPT1 [3]: A (0% ≤ substrate protein remaining % ≤ 80%)
- substrate protein remaining % IKZF2 [4]: B (80%< substrate protein remaining %≤ 100%)
- substrate protein remaining % IKZF1 [5]: B (80%< substrate protein remaining %≤ 100%)
- substrate protein remaining % IKZF3 [6]: B (80%< substrate protein remaining %≤ 100%)

SMILES: Cc1cc(C2CCN(Cc3ccc4c(c3)C(=O)N(N3CCC(=O)NC3=O)C4=O)CC2)cs1 [GT-07421, 2-(2,4-dioxotetrahydropyrimidin-1(2H)-yl)-5-((4-(5-methylthiophen-3-yl)piperidin-1-yl)methyl)isoindoline-1,3-dione]
- substrate protein remaining % WEE1 [1]: B (80%< substrate protein remaining %≤ 100%)
- substrate protein remaining % CK1α [2]: A (0% ≤ substrate protein remaining % ≤ 80%)
- substrate protein remaining % GSPT1 [3]: A (0% ≤ substrate protein remaining % ≤ 80%)
- substrate protein remaining % IKZF2 [4]: B (80%< substrate protein remaining %≤ 100%)
- substrate protein remaining % IKZF1 [5]: B (80%< substrate protein remaining %≤ 100%)
- substrate protein remaining % IKZF3 [6]: B (80%< substrate protein remaining %≤ 100%)

SMILES: O=C1CCN(N2C(=O)c3ccc(CN4CCC(c5ccoc5)CC4)cc3C2=O)C(=O)N1 [GT-07422, 2-(2,4-dioxotetrahydropyrimidin-1(2H)-yl)-5-((4-(furan-3-yl)piperidin-1-yl)methyl)isoindoline-1,3-dione]
- substrate protein remaining % WEE1 [1]: B (80%< substrate protein remaining %≤ 100%)
- substrate protein remaining % CK1α [2]: A (0% ≤ substrate protein remaining % ≤ 80%)
- substrate protein remaining % GSPT1 [3]: A (0% ≤ substrate protein remaining % ≤ 80%)
- substrate protein remaining % IKZF2 [4]: B (80%< substrate protein remaining %≤ 100%)
- substrate protein remaining % IKZF1 [5]: B (80%< substrate protein remaining %≤ 100%)
- substrate protein remaining % IKZF3 [6]: B (80%< substrate protein remaining %≤ 100%)

SMILES: Cc1cc(C2=CCN(Cc3ccc4c(c3)C(=O)N(N3CCC(=O)NC3=O)C4=O)CC2)cs1 [GT-07423, 2-(2,4-dioxotetrahydropyrimidin-1(2H)-yl)-5-((4-(5-methylthiophen-3-yl)-3,6-dihydropyridin-1(2H)-yl)methyl)isoindoline-1,3-dione]
- substrate protein remaining % WEE1 [1]: A (0% ≤ substrate protein remaining % ≤ 80%)
- substrate protein remaining % CK1α [2]: A (0% ≤ substrate protein remaining % ≤ 80%)
- substrate protein remaining % GSPT1 [3]: A (0% ≤ substrate protein remaining % ≤ 80%)
- substrate protein remaining % IKZF2 [4]: B (80%< substrate protein remaining %≤ 100%)
- substrate protein remaining % IKZF1 [5]: B (80%< substrate protein remaining %≤ 100%)
- substrate protein remaining % IKZF3 [6]: A (0% ≤ substrate protein remaining % ≤ 80%)

SMILES: O=C1CCN(N2C(=O)c3ccc(CN4CCC(c5cccs5)CC4)cc3C2=O)C(=O)N1 [GT-07424, 2-(2,4-dioxotetrahydropyrimidin-1(2H)-yl)-5-((4-(thiophen-2-yl)piperidin-1-yl)methyl)isoindoline-1,3-dione]
- substrate protein remaining % WEE1 [1]: A (0% ≤ substrate protein remaining % ≤ 80%)
- substrate protein remaining % CK1α [2]: B (80%< substrate protein remaining %≤ 100%)
- substrate protein remaining % GSPT1 [3]: A (0% ≤ substrate protein remaining % ≤ 80%)
- substrate protein remaining % IKZF2 [4]: B (80%< substrate protein remaining %≤ 100%)
- substrate protein remaining % IKZF1 [5]: A (0% ≤ substrate protein remaining % ≤ 80%)
- substrate protein remaining % IKZF3 [6]: A (0% ≤ substrate protein remaining % ≤ 80%)

SMILES: O=C1CCN(N2Cc3cc(CN4C[C@H]5C[C@@H]4CN5c4cccc(Cl)c4Cl)ccc3C2=O)C(=O)N1 [GT-07427, 1-(5-(((1R,4R)-5-(2,3-dichlorophenyl)-2,5-diazabicyclo[2.2.1]heptan-2-yl)methyl)-1-oxoisoindolin-2-yl)dihydropyrimidine-2,4(1H,3H)-dione]
- substrate protein remaining % WEE1 [1]: A (0% ≤ substrate protein remaining % ≤ 80%)
- substrate protein remaining % CK1α [2]: A (0% ≤ substrate protein remaining % ≤ 80%)
- substrate protein remaining % GSPT1 [3]: A (0% ≤ substrate protein remaining % ≤ 80%)
- substrate protein remaining % IKZF2 [4]: B (80%< substrate protein remaining %≤ 100%)
- substrate protein remaining % IKZF1 [5]: A (0% ≤ substrate protein remaining % ≤ 80%)
- substrate protein remaining % IKZF3 [6]: B (80%< substrate protein remaining %≤ 100%)

SMILES: O=C1CCN(N2Cc3cc(CN4CC5CCC4CN5c4cccc(Cl)c4Cl)ccc3C2=O)C(=O)N1 (stereo not drawn) [GT-07428, 1-(5-((5-(2,3-dichlorophenyl)-2,5-diazabicyclo[2.2.2]octan-2-yl)methyl)-1-oxoisoindolin-2-yl)dihydropyrimidine-2,4(1H,3H)-dione]
- substrate protein remaining % WEE1 [1]: B (80%< substrate protein remaining %≤ 100%)
- substrate protein remaining % CK1α [2]: A (0% ≤ substrate protein remaining % ≤ 80%)
- substrate protein remaining % GSPT1 [3]: A (0% ≤ substrate protein remaining % ≤ 80%)
- substrate protein remaining % IKZF2 [4]: B (80%< substrate protein remaining %≤ 100%)
- substrate protein remaining % IKZF1 [5]: A (0% ≤ substrate protein remaining % ≤ 80%)
- substrate protein remaining % IKZF3 [6]: B (80%< substrate protein remaining %≤ 100%)

SMILES: O=C1CCN(N2Cc3cc(CN4CC5CCC(C4)N5c4cccc(Cl)c4Cl)ccc3C2=O)C(=O)N1 [GT-07429, 1-(5-((8-(2,3-dichlorophenyl)-3,8-diazabicyclo[3.2.1]octan-3-yl)methyl)-1-oxoisoindolin-2-yl)dihydropyrimidine-2,4(1H,3H)-dione]
- substrate protein remaining % WEE1 [1]: B (80%< substrate protein remaining %≤ 100%)
- substrate protein remaining % CK1α [2]: B (80%< substrate protein remaining %≤ 100%)
- substrate protein remaining % GSPT1 [3]: B (80%< substrate protein remaining %≤ 100%)
- substrate protein remaining % IKZF2 [4]: B (80%< substrate protein remaining %≤ 100%)
- substrate protein remaining % IKZF1 [5]: A (0% ≤ substrate protein remaining % ≤ 80%)
- substrate protein remaining % IKZF3 [6]: B (80%< substrate protein remaining %≤ 100%)

Source: patent EP4722207A1, “OXOISOINDOLINYL-SUBSTITUTED TETRAHYDROPYRIMIDINEDIONE DERIVATIVE AND USE THEREOF” (Gluetacs Therapeutics (Shanghai) Co., Ltd., priority 2023, dated 2024)
